{"source": "patent US7378391B2", "about": "“Cyclosporin alkyne analogues and their pharmaceutical uses” (AMR Technology, Inc., priority 2004, dated 2008)", "key": {"[1]": {"test_system": "concanavalin A (ConA)-stimulated murine splenocytes", "assay": "Concanavalin A-stimulated splenocyte assay ([3H]thymidine incorporation)", "type": "cell-based, BALB/c mice", "conditions": "for IC50: immunosuppressive activity of the novel cyclosporin alkyne analogue compound", "protocol": "Male BALB/c mice, at 5 to 7 weeks of age, were sacrificed by CO2 inhalation. Spleens were removed and dissociated by pushing through a nylon cell strainer. The splenocytes were washed in RPMI 1640/5% fetal calf serum (FCS) and pelleted at 400×g. Red blood cells were then lysed by resuspending the cell pellet in ACK lysis buffer (150 mM NH4Cl, 1 mM KHCO3, 0.1 mM EDTA, 3 mL per spleen) for 10 min at room temperature. After pelleting at 400×g, the cells were washed by resuspending in RPMI 1640/5% FCS and repelleting. The cell pellet was resuspended in RPMI 1640/5% FCS and again passed through a cell strainer to remove cell aggregates. The cells were then counted and adjusted to 2×10^6 cells/ml in RPMI 1640/10% FCS/50 μM 2-mercaptoethanol. Cell viability was assessed by Trypan blue staining. […] The cells were cultured in a 37° C. CO2 incubator for 2 days and then pulsed with 1 μCi of [^3H]thymidine for 6 hours. Cells were harvested onto filtermats with a TomTec 96 well plate harvester and lysed with H2O. The filtermat and scintillation fluid were sealed in a plastic sleeve. [^3H]thymidine incorporation was measured with a Wallac Trilux plate counter. Initial screens were done at a fixed value of 100 ng/ml test compound. IC50s were calculated from 7 point concentration-response curves using GraphPad software."}, "[2]": {"conditions": "literature value, Rich et al.; cited from earlier work"}}, "data": [{"compound": "CC[C@@H]1NC(=O)[C@H]([C@H](O)[C@H](C)C/C=C/C#CC2CC2)N(C)C(=O)[C@H](C(C)C)N(C)C(=O)[C@H](CC(C)C)N(C)C(=O)[C@H](CC(C)C)N(C)C(=O)[C@@H](C)NC(=O)[C@H](C)NC(=O)[C@H](CC(C)C)N(C)C(=O)[C@H](C(C)C)NC(=O)[C@H](CC(C)C)N(C)C(=O)CN(C)C1=O", "note": "[Example 33, cyclosporin cyclopropyl alkyne]", "values": [{"measurement": "immunosuppressive activity (as determined by IC50) relative to ISATX247", "setting": "[1]; FIG. 1, compared to ISATX247", "result": "equipotent"}, {"measurement": "immunosuppressive activity (as determined by IC50) relative to cyclosporin A", "setting": "[1]; FIG. 1, compared to cyclosporin A", "result": "up to two times more active"}, {"measurement": "potency in immunosuppression compared to cyclosporin A and ISATX247", "setting": "[1]; FIG. 1 legend", "result": "enhanced or similar potency"}, {"measurement": "IC50", "setting": "[1]", "result": 9, "unit": "ng/mL"}]}, {"compound": "CC#CC[C@@H](C)[C@@H](O)[C@H]1C(=O)N[C@@H](CC)C(=O)N(C)CC(=O)N(C)[C@@H](CC(C)C)C(=O)N[C@@H](C(C)C)C(=O)N(C)[C@@H](CC(C)C)C(=O)N[C@@H](C)C(=O)N[C@H](C)C(=O)N(C)[C@@H](CC(C)C)C(=O)N(C)[C@@H](CC(C)C)C(=O)N(C)[C@@H](C(C)C)C(=O)N1C", "note": "[known cyclosporin alkyne]", "values": [{"measurement": "relative immunosuppressive activity compared to cyclosporin A", "setting": "[2]", "result": 10, "unit": "%"}]}, {"compound": "CCC1NC(=O)C(C(O)C(C)CC=CC#CBr)N(C)C(=O)C(C(C)C)N(C)C(=O)C(CC(C)C)N(C)C(=O)C(CC(C)C)N(C)C(=O)C(C)NC(=O)C(C)NC(=O)C(CC(C)C)N(C)C(=O)C(C(C)C)NC(=O)C(CC(C)C)N(C)C(=O)CN(C)C1=O", "note": "(stereo not shown) [Example 15, cyclosporin alkynyl bromide]", "values": [{"measurement": "IC50", "setting": "[1]", "result": 8, "unit": "ng/mL"}]}, {"compound": "CCC1NC(=O)C(C(O)C(C)CC=CC#CI)N(C)C(=O)C(C(C)C)N(C)C(=O)C(CC(C)C)N(C)C(=O)C(CC(C)C)N(C)C(=O)C(C)NC(=O)C(C)NC(=O)C(CC(C)C)N(C)C(=O)C(C(C)C)NC(=O)C(CC(C)C)N(C)C(=O)CN(C)C1=O", "note": "(stereo not shown) [Example 13, cyclosporin alkynyl iodide]", "values": [{"measurement": "IC50", "setting": "[1]", "result": 1, "unit": "ng/mL"}]}]}
